Data on 13 compounds can be found in ChEMBL document CHEMBL1141160, “Structure-based optimization of phenylbutyrate-derived histone deacetylase inhibitors” (J Med Chem, 2005).

A word on the IC50: it is the concentration that inhibits the measured activity by half. Read a high IC50 as lower potency.

The target in assay [1] is Histone deacetylase. The conditions noted are these: prostate.
Description: In vitro inhibitory concentration against histone deacetylase of DU-145 prostate cell nuclear extract as deacetylation of biotinylated [3H]-acetyl histone H4 peptide
Assay [2] concerns DU-145. Briefly: cells. The following applies: Homo sapiens, DU-145, 96 h.
Description: Inhibitory concentration against DU-145 prostate cancer cell proliferation over 96 hr

In assay [1], `O=C(CCc1ccc(NC(=O)CCCc2ccccc2)cc1)NO` registered an IC50 of 1200 nM. Still for that read-out and setting: then `CC[C@H](C(=O)Nc1ccc(C(=O)NO)cc1)c1ccccc1`, with 34 nM; and `CC(C)(CCc1ccccc1)C(=O)Nc1ccc(C(=O)NO)cc1`, with 25 nM. For the compound `CC[C@@H](C(=O)Nc1ccc(C(=O)NO)cc1)c1ccccc1`, in assay [1], the IC50 is given as 68 nM. In turn, `O=C(CCCCc1ccccc1)Nc1ccc(C(=O)NO)cc1` yielded an IC50 in assay [1] of 250 nM. The same measure, in the same setting: the figure for `CN(C(=O)CCCc1ccccc1)c1ccc(C(=O)NO)cc1` is 520 nM. With `CC(C)(C(=O)Nc1ccc(C(=O)NO)cc1)c1ccccc1`, in assay [1], the IC50 amounted to 98 nM.

In the case of `O=C(NO)c1ccc(NC(=O)c2ccccc2)cc1`, the IC50 in assay [1] stood at 210 nM. `CC(C)[C@@H](C(=O)Nc1ccc(C(=O)NO)cc1)c1ccccc1` returned a half-maximal inhibitory concentration (IC50) in assay [2] of 820 nM.

In assay [1], `O=C(CCCc1ccccc1)NCc1ccc(C(=O)NO)cc1` had an IC50 of 530 nM.

`O=C(Cc1ccccc1)Nc1ccc(C(=O)NO)cc1` had a 50% inhibitory concentration (IC50) in assay [1] of 157 nM. Same read-out and setting: then `CCC(C(=O)Nc1ccc(C(=O)NO)cc1)c1ccccc1` (racemic), with 54 nM. As for `CC(C)[C@H](C(=O)Nc1ccc(C(=O)NO)cc1)c1ccccc1` [AR-42], in assay [2], the IC50 worked out at 110 nM.
